In the assay the target is T1, PI3Kα (Homo sapiens, UniProt P42336).
T1 construct: His; made in house
T1 sequence (P42336 whole entry): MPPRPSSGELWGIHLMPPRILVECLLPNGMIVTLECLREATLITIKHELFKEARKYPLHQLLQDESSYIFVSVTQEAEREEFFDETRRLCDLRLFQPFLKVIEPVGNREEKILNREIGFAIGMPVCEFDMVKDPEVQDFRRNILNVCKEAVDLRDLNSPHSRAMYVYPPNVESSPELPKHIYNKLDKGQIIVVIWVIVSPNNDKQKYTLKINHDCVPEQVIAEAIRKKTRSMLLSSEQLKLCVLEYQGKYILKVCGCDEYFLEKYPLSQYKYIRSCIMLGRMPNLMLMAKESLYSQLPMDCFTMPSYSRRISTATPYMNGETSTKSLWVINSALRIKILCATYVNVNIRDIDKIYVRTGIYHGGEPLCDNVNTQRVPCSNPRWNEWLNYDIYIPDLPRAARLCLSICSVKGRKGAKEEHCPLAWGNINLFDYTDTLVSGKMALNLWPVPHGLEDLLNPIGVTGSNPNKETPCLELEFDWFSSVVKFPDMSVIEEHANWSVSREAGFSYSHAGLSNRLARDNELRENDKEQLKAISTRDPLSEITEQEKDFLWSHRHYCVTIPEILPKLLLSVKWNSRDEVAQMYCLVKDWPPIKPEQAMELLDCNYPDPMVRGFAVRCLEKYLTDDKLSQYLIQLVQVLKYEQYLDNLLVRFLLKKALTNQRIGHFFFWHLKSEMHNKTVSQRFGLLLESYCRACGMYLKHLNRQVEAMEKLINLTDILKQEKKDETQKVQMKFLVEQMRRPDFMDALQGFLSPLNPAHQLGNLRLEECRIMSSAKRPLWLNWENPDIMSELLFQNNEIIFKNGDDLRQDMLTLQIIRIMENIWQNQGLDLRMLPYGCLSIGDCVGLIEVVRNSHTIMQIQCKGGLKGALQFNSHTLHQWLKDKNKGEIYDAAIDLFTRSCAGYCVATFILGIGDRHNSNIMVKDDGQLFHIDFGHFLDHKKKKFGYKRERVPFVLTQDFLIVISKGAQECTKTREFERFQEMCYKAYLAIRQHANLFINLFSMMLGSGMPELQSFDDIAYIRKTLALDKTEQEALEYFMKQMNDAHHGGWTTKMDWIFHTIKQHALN
T1 sequence (P27986 whole entry partner): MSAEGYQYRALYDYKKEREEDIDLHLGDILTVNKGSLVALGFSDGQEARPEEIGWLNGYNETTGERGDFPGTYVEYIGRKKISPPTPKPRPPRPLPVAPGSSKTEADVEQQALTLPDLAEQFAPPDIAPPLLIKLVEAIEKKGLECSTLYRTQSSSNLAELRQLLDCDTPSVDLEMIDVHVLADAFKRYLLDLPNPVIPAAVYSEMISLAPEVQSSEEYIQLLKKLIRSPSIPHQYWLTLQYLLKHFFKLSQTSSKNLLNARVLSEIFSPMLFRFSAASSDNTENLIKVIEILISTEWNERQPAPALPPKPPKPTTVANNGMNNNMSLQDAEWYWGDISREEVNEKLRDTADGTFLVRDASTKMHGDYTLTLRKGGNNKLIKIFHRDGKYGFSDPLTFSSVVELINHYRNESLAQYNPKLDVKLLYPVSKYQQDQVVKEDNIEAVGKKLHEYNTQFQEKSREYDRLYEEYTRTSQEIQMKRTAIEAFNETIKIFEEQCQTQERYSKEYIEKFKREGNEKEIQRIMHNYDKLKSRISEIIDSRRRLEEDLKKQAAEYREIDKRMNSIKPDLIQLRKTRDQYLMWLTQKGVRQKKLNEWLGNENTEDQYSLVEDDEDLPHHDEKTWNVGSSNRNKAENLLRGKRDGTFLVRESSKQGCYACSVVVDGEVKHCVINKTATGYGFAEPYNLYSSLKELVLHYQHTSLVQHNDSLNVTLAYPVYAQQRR
Put plainly: PI3K alpha TR-FRET assay / PI3K alpha Leadseeker SPA assay. The class given is biochemical. The following applies: in at least one experimental run; read-out: IC50 value against PI3Kα. As for the experimental part:
Compounds of the present invention were tested according to the following assays and found as inhibitors of PI3 kinases, particularly PI3Kα. The exemplified compounds were tested and found active against PI3Kα. The IC50's ranged from about 1 nM to 10 μM.
The PI3-Kinase assay has been developed and optimized from a kit produced by Upstate (Millipore). Briefly, this kit contains a biotinylated PIP3 which forms a HTRF (homogeneous time-resolved fluorescence energy transfer) complex when mixed with a Europium labeled anti-GST monoclonal antibody, a GST tagged pleckstrin homology (PH) domain, and Streptavidin-Allophycocyanin (APC). The unlabeled PIP3 produced by PI 3-Kinase activity displaces biotin-PIP3 from the complex resulting in a loss of energy transfer and thus a decrease in signal. Millipore, PI 3-Kinase (human) HTRF™ Assay, technical document associated with catalog# 33-017
Compounds are serially diluted (3-fold in 100% DMSO) across a polypropylene 120 μL mother plate from column 1 to column 12 and column 13 to column 24, leaving columns 6 and 18 containing only DMSO to yield 11 concentrations for each test compound. Once titrations are made, 0.1 μL is transferred to the assay plates (Greiner 784075). This assay plate contains three controls: column 6 with DMSO, and column 18 with alternating 20 μM wortmannin and 40 μM PIP3. […] The PIP3 control is dispensed into the plate manually via a matrix pipettor, 1 μL of 200 μM PIP3 in 1× Reaction buffer to wells 18 B, D, F, H, J, L, N, P.
The PI3-Kinase assay has been developed and optimized from a kit produced by Upstate (Millipore). The assay kit (cat: 33-017) contains seven reagents: 1) 4× Reaction Buffer, 2) PIP2 (1 mM), 3) Stop A, 4) Stop B, 5) Detection Mix A, 6) Detection Mix B, 7) Detection Mix C. In addition the following items were obtained or purchased, PI3Kinase (prepared in-house), 4×PI3K Detection Buffer (Millipore), dithiothreitol (Sigma, D-5545), Adenosine-5′-triphosphate (ATP, Sigma, A-6419), PIP3 (1,2-dioctanoyl-sn-glycero-3[phosphoinositil-3,4,5-triphosphate]tetraammonium salt (Avanti polar lipids, 850186P), DMSO (Sigma, 472301), Wortmannin (Sigma, W-1628).
Prepare 1×PI3Kinase Reaction Buffer by diluting stock 1:4 with de-ionized water, freshly prepared DTT is added at a final concentration of 5 mM on the day of use. Enzyme addition and compound preincubation is initiated by the addition of 2.5 μL of 2× enzyme solution, PI3K alpha in 1× reaction buffer, to all wells using a Multidrop Combi. Plates are incubated at room temperature for 15 minutes. Substrate addition and reaction initiation is completed by the addition of 2.5 μL of 2× substrate solution, PIP2 and ATP in 1× reaction buffer, to all wells using a Multidrop Combi. […] Incubate one hour, evaluate the HTRF signal on the Envision plate reader. […]
For orientation: In TR-FRET formats the signal depends on donor and acceptor labels being close together.
Turning to `CN(C)c1ncnc2ccc(-c3cncc(NS(=O)(=O)c4ccccc4)c3)nc12` [Example 1, N-{5-[4-(dimethylamino)pyrido[3,2-d]pyrimidin-6-yl]-3-pyridinyl}benzenesulfonamide], the half-maximal inhibitory concentration (IC50) – broadly, the midpoint of a concentration-inhibition curve – was 2 nM.

Regarding `O=S(=O)(Nc1cncc(-c2ccc3ncnc(N4CCOCC4)c3n2)c1)c1ccccc1` [Example 2, N-{5-[4-(4-morpholinyl)pyrido[3,2-d]pyrimidin-6-yl]-3-pyridinyl}benzenesulfonamide], the IC50 was 0.7 nM.

`COc1ncc(-c2ccc3ncnc(N4CCOCC4)c3n2)cc1NS(=O)(=O)C1CC1` [Example 5, N-{2-(methyloxy)-5-[4-(4-morpholinyl)pyrido[3,2-d]pyrimidin-6-yl]-3-pyridinyl}cyclopropanesulfonamide]: the 50% inhibitory concentration (IC50) stood at 0.5 nM.

Consider `O=S(=O)(Nc1cc(-c2ccc3ncnc(N4CCOCC4)c3n2)cnc1Cl)c1ccc(F)cc1F` [Example 7, N-{2-chloro-5-[4-(4-morpholinyl)pyrido[3,2-d]pyrimidin-6-yl]-3-pyridinyl}-2,4-difluorobenzenesulfonamide], for which the IC50 was 0.02 nM.

The record behind these values is patent publication US20100204222A1, “PYRIDOPYRIMIDINE DERIVATIVES AS P13 KINASE INHIBITORS” (GlaxoSmithKline, LLC, priority 2007, published 2010).
